# Test results: patent US10975412B2, “Method for designing compounds and compositions useful for targeting high stoichiometric complexes to treat conditions, including treatment of viruses, bacteria, and cancers having acquired drug resistance” (priority 2015, dated 2021)
# Where two headings read alike, the source gives them in different places.
# Molecular target: T1, phi29 DNA packaging motor (Bacillus phage phi29, UniProt P11014)
# T1 construct: made in house
# Format: biochemical, bacteriophage phi29
# Details: for inhibition effect in viral assembly: adding 20% of the drugged/mutant component to the wild-type component
# Procedure: (§1) Purified components were subjected to in vitro viral assembly assay as described previously. Briefly, 10 μg of purified procapsids were mixed with 100 ng of pRNA in 5 μl of reaction buffer (10 mM ATP, 6 mM 2-mercaptoethanol, and 3 mM spermidine in TMS buffer) at room temperature for 30 min. Purified DNA-gp3 and gp16 were then added and the reaction mixture was incubated at room temperature for one hour to initiate DNA packaging. Finally, the DNA filled procapsids were incubated with 10 μl of gp8.5-9 extract from E. coli containing plasmid pARgp8.5-9 and 20 μl of gp11-14 extract from E. coli to complete the infectious phage assembly.
# The newly assembled infectious viruses were plated with inoculated B. subtilis bacteria Su^+44 cells onto a half LB plate covered with top agar. After 12 hour incubation at 37° C., the viral assembly efficiency (plaque-forming unit, PFU) was calculated by counting the formed plaque numbers.
# as §1
# T1 sequence (P11014 whole entry): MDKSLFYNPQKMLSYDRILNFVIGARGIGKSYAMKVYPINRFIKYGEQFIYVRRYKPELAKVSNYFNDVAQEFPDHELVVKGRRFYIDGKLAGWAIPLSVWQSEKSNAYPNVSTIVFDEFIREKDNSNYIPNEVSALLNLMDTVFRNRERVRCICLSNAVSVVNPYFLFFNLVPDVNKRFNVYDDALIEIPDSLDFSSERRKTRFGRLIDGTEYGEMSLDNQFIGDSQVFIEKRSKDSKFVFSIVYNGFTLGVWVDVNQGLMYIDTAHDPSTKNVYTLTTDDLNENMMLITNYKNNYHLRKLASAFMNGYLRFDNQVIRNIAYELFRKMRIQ
structure (smiles),measurement,setting,value
Nc1ncnc2c1ncn2[C@@H]1O[C@H](COP(=O)(O)OP(=O)(O)OP(O)(O)=S)[C@@H](O)[C@H]1O [γ-S-ATP],inhibition effect in viral assembly,,almost completely inhibited
same,inhibition effect in viral assembly,listed as gamma-s-ATP,nearly completely inhibited
same,comparison of virus assembly inhibition effect between drugged components,"targets ATP, pRNA, ATPase gp16, DNA with stoichiometry 10000, 6, 6, 1",strongest inhibition effect
